Test results from PMC10349829, “Functional characterization of the transient receptor potential melastatin 2 (TRPM2) cation channel from Nematostella vectensis reconstituted into lipid bilayer” (Scientific Reports, 2023).
Where two headings read alike, the source gives them in different places.

Biological target: T1, nvTRPM2 (transient receptor potential melastatin 2) (Nematostella vectensis, UniProt A7T1N0)
T1 construct: gene TRPM2; purified and reconstituted into planar lipid bilayers
Experiment: single-channel recording of purified channel in planar lipid bilayers (activation)
Assay type: biochemical

T1 sequence (A7T1N0 whole entry): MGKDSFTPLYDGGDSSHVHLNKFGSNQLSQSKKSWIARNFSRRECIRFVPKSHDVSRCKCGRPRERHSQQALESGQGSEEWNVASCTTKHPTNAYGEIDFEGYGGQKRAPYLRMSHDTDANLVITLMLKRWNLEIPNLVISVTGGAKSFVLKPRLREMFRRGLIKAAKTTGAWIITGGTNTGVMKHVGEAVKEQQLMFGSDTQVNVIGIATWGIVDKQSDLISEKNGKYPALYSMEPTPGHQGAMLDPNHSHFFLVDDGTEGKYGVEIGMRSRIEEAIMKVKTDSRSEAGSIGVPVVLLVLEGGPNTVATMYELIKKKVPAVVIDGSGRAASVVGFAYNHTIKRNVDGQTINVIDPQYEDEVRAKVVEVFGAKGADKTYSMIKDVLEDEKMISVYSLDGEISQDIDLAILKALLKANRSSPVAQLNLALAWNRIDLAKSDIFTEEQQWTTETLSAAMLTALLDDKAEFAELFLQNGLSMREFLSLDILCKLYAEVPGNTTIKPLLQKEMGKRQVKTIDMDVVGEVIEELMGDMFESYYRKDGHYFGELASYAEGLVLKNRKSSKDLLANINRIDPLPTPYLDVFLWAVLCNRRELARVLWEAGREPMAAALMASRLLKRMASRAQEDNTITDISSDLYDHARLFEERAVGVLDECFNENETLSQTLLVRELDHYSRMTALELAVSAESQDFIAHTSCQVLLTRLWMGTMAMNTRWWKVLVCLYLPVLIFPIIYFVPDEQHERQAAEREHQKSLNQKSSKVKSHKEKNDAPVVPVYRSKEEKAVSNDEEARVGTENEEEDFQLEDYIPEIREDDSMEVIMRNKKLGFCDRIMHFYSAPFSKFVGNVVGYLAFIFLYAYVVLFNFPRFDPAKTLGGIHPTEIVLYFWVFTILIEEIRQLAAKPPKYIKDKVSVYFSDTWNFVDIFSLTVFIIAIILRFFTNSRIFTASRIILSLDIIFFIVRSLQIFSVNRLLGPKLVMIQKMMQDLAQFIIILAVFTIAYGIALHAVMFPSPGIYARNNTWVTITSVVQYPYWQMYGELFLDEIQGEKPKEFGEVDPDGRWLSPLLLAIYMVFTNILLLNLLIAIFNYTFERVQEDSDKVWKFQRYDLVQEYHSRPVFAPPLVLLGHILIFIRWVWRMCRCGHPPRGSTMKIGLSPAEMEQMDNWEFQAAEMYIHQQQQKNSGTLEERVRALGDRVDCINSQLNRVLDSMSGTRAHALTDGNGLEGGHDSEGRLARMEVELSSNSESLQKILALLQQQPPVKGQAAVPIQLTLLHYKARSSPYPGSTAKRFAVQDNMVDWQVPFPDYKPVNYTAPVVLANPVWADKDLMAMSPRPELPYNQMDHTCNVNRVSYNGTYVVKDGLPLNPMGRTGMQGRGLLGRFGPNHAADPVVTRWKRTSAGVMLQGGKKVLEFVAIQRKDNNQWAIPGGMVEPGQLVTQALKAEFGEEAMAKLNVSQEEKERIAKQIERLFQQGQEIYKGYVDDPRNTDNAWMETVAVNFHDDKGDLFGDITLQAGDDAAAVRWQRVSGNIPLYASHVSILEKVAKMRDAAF

Q: How did the EC50 turn out when `Nc1ncnc2c1ncn2[C@@H]1O[C@H](COP(=O)(O)OP(=O)(O)OC[C@H]2OC(O)[C@H](O)[C@@H]2O)[C@@H](O)[C@H]1OP(=O)(O)O` (some centres unmarked) [ADPRP] was run?
A: ~200 nM

Q: With `Nc1ncnc2c1ncn2[C@@H]1O[C@H](COP(=O)(O)OP(=O)(O)OC[C@H]2OC(O)[C@H](O)[C@@H]2O)[C@@H](O)[C@H]1O` (some centres unmarked) [ADPR] as the compound, how does the EC50 (read-out: EC50) read?
A: ~1000 nM
